Experimental data reported in patent US8663646B2, “P53 peptide vaccine” (priority 2007, dated 2014).
Where no end group is shown, it is not given here.

Assays:
[1] = test system: HLA-A*2401; assay: Stability of peptide-HLA complex, binding at 4° C. and 20° C., HLA-A*2401; design: species or system human; conditions: for HLA binding Stability (Table 5): HLA type A24; for Peptide Binding Stability: HLA-A*2401, IC50 at 20° C. vs 4° C.
Description: (§1) Stability of other peptide-HLA complexes was preferably determined as follows. […] Peptides of >50% of the initial complexes was lost within 2 hours were considered unstable. […] The rest was designated as unstable peptide binding.
(§2) Peptides 8-11 residues in length were selected based on typical anchor residues for HLA-A*0101, A*0301, A*1101 and HLA-A*2401 (Rammensee H G et al). The capacity of peptides to bind was tested in a competition based cellular binding assay as previously described (van der Burg S H et al 1995). FL-labeled reference peptides were synthesized as Cys-derivative (van der Burg S H et al 1995). Fluorescence labeled reference peptides used were: YLEPAC(FL)AK (SEQ ID NO: 87) (HLA-A*0101) and KVFPC(FL)ALINK (SEQ ID NO: 88) (HLA-A*1101) (Sette A et al), KVFPC(FL)ALINK (SEQ ID NO: 89) (HLAA*0301) (van der Burg S H et al 1995) and RYLKC(FL)QQLL (SEQ ID NO: 90) (A*2401) (Dai L C et al). B-cell lines used are: CAA (A*0101), EKR (A*0301), BVR (A*1101), VIJF (A*2401). The relative binding capacity of the peptides is expressed as the peptide concentration to inhibit 50% (1050) of the binding of the reference peptide. […] Peptide stabilization for HLA-A*0201 was performed as previously described (van der Burg S H et al, 1996). Peptides of >50% of the initial complexes was lost within 2 hours were considered unstable. Stability of other peptide-HLA complexes was determined as follows. Peptide binding was performed at 4° C. and 20° C. and 1050 were determined. […] The rest was designated as unstable peptide binding.

[2] = test system: HLA-A*2401; assay: Competition based cellular binding assay, HLA-A*2401 (B-cell line VIJF); design: species or system human; conditions: for HLA binding Affinity (Table 5): HLA type A24; for Peptide Binding Affinity: HLA-A*2401, IC50 category
[3] = biological target: T1, 20S immuno-proteasomes from human B-LCL cell line (JY) (Homo sapiens, UniProt P28062+P28065+P40306); assay: In vitro proteasome mediated digestion of 30-mers, mass spectrometry, immunoproteasome JY; type: biochemical; conditions: 30 residue long precursor peptides
T1 construct: purified from a mouse B-cell line (RMA) and a human B-LCL cell line (JY); endogenous in cells; host or cells: B-LCL JY cells; 20S proteasome purified from them
Description: (§3) In the context of the invention, “being inefficiently processed by a proteasome” preferably means that within the first hour of digestion by a proteasome less than 1% of total digested peptide is found. The processing by a proteasome is preferably assessed by incubating a purified proteasome, more preferably a human proteasome with a peptide comprising the potential CTL epitope (30 amino acid length approximately) in a proteasome digestion buffer during at least one hour at 37° C. The reaction is subsequently stopped by adding trifluoroacetic acid. Analysis of the digested peptides is performed with electrospray ionization mass spectrometry (see example 1). Even more preferably, the human proteasome is an immunoproteasome from B-LCL JY cells (Kessler J H et al. 2001).
(§4) 20S immuno-proteasomes were purified from a mouse B-cell line (RMA) and a human B-LCL cell line (JY) and 20S household proteasomes were purified from human tumor cell line (HeLa) as described (Kessler J H et al 2001). To assess kinetics, digestions were performed with different incubation periods as indicated. Briefly, peptides containing the (potential) CTL epitopes (30 mers, 20 μg) were incubated with 1 μg of purified proteasome at 37° C. for 1 h, 4 h and 24 h in 300 μl proteasome digestion buffer, trifluoroacetic acid (30 μl) was added to stop the digestion and samples were stored at −20° C. before mass spectrometric analysis. Electrospray ionization mass spectrometry was performed on a hybrid quadrupole time-of-flight mass spectromter, a Q-TOF (Micromass), equipped with an on-line nanoelectrospray interface with an approximate flow rate of […] as described (Kessler J H et al 2001). The peaks in the mass spectrum were searched in the digested precursor peptide using the Biolynx/proteins software (Micromass) supplied with the mass spectrometer. The intensity of the peaks in the mass spectra was used to establish the relative amounts of peptides generated after proteasome digestion. The relative amounts of the peptides are given as a percentage of the total amount of peptide digested by the proteasome at the indicated incubation time. Major cleavage sites are defined as more than >1% of total digested peptide within the first hour.

[4] = biological target: T2, 20S household proteasomes from human tumor cell line (HeLa) (Homo sapiens, UniProt P28072+P28074+Q99436); assay: In vitro proteasome mediated digestion of 30-mers, mass spectrometry, household proteasome HeLa; type: biochemical; conditions: 30 residue long precursor peptides
T2 construct: 20S household proteasomes were purified from human tumor cell line (HeLa); endogenous in cells; host or cells: HeLa cells; 20S proteasome purified from them
Description: as §3, §4

[5] = biological target: T3, 20S immuno-proteasomes from mouse B-cell line (RMA) (Mus musculus, UniProt O35955+P28063+P28076); assay: In vitro proteasome mediated digestion of 30-mers, mass spectrometry, immunoproteasome RMA; type: biochemical; conditions: 30 residue long precursor peptides
T3 construct: 20S immuno-proteasomes were purified from a mouse B-cell line (RMA); endogenous in cells; host or cells: RMA cells; 20S proteasome purified from them
Description: as §3, §4

[6] = biological target: T4, HLA-A*0301 (Homo sapiens, UniProt P04439); assay: Stability of peptide-HLA complex, binding at 4° C. and 20° C., HLA-A*0301; conditions: for HLA binding Stability (Table 5): HLA type A3; for Peptide Binding Stability: HLA-A*0301, IC50 at 20° C. vs 4° C.
T4 construct: B-cell lines used are: CAA (A*0101), EKR (A*0301), BVR (A*1101), VIJF (A*2401); endogenous in cells; host or cells: B-cell line EKR
Description: as §1, §2

[7] = biological target: T4, HLA-A*0301; assay: Competition based cellular binding assay, HLA-A*0301 (B-cell line EKR); conditions: for HLA binding Affinity (Table 5): HLA type A3; for IC50 / Peptide Binding Affinity: HLA-A*0301, IC50 category; for IC50: read-out: Peptide Binding Affinity
[8] = biological target: T5, HLA-A*1101 (Homo sapiens, UniProt P04439, A114D/D185E/E176A/F33Y/L180Q/S129P/T187R); assay: Stability of peptide-HLA complex, binding at 4° C. and 20° C., HLA-A*1101; conditions: for Peptide Binding Stability: HLA-A*1101, IC50 at 20° C. vs 4° C.
T5 construct: B-cell lines used are: CAA (A*0101), EKR (A*0301), BVR (A*1101), VIJF (A*2401); endogenous in cells; host or cells: B-cell line BVR
Description: as §1, §2

[9] = biological target: T5, HLA-A*1101; assay: Competition based cellular binding assay, HLA-A*1101 (B-cell line BVR)

CC(C)C[C@H](NC(=O)[C@H](Cc1ccc(O)cc1)NC(=O)[C@@H](N)CCC(=O)O)C(=O)N[C@@H](CC(=O)O)C(=O)N[C@@H](CC(=O)O)C(=O)N[C@@H](CCCNC(=N)N)C(=O)N[C@@H](CC(N)=O)C(=O)N[C@H](C(=O)N[C@@H](Cc1ccccc1)C(=O)O)[C@@H](C)O [p53 204-212]
HLA binding Stability (Table 5) [1]: + (Stable peptides displayed IC50 at 20 °C that deviated <2 times of the IC50 at 4° C.)
Peptide Binding Stability [1]: + (Stable peptides displayed IC50 at 20 °C that deviated <2 times of the IC50 at 4° C.)
HLA binding Affinity (Table 5) [2]: high
Peptide Binding Affinity [2]: high

CC(C)C[C@H](NC(=O)[C@@H](NC(=O)[C@H](CC(N)=O)NC(=O)[C@H](CC(N)=O)NC(=O)[C@H](CCC(=O)O)NC(=O)[C@@H]1CCCN1C(=O)[C@H](CC(C)C)NC(=O)[C@H](CC(C)C)NC(=O)[C@@H](N)CCCCN)C(C)C)C(=O)O [p53 24-32]
Proteasomal Cleavage of C-terminus, IP (JY) [3]: + (Major cleavage sites are defined as more than >1% of total digested peptide within the first hour)
Proteasomal Cleavage of C-terminus, HH (HeLa) [4]: + (Major cleavage sites are defined as more than >1% of total digested peptide within the first hour)
Proteasomal Cleavage of C-terminus, IP (RMA) [5]: + (Major cleavage sites are defined as more than >1% of total digested peptide within the first hour)

KGQSTSRHK [p53 373-381]
Proteasomal Cleavage of C-terminus, IP (JY) [3]: + (Major cleavage sites are defined as more than >1% of total digested peptide within the first hour)
HLA binding Stability (Table 5) [6]: − (The rest was designated as unstable peptide binding.)
Peptide Binding Stability [6]: +/− (Peptides that displayed IC50 at 20 °C of more than twice the IC50 at 4 °C but IC50 < 15 μM were considered to bind with intermediate stability.)
Proteasomal Cleavage of C-terminus, HH (HeLa) [4]: + (Major cleavage sites are defined as more than >1% of total digested peptide within the first hour)
HLA binding Affinity (Table 5) [7]: int
IC50 [7]: 5 to 15 µM
Proteasomal Cleavage of C-terminus, IP (RMA) [5]: + (Major cleavage sites are defined as more than >1% of total digested peptide within the first hour)

CSCC[C@H](N)C(=O)N[C@@H](Cc1ccccc1)C(=O)N[C@@H](CCCNC(=N)N)C(=O)N[C@@H](CCC(=O)O)C(=O)N[C@@H](CC(C)C)C(=O)N[C@@H](CC(N)=O)C(=O)N[C@@H](CCC(=O)O)C(=O)N[C@@H](C)C(=O)N[C@@H](CC(C)C)C(=O)O [p53 340-348, MFRELNEAL]
HLA binding Stability (Table 5) [1]: +/− (Peptides that displayed IC50 at 20 °C of more than twice the IC50 at 4 °C but IC50 < 15 μM were considered to bind with intermediate stability.)
Peptide Binding Stability [1]: +/− (Peptides that displayed IC50 at 20 °C of more than twice the IC50 at 4 °C but IC50 < 15 μM were considered to bind with intermediate stability.)
HLA binding Affinity (Table 5) [2]: high
Peptide Binding Affinity [2]: high

CC[C@H](C)[C@H](NC(=O)[C@@H](NC(=O)[C@@H](NC(=O)[C@H](CS)NC(=O)[C@H](CC(=O)O)NC(=O)[C@H](CO)NC(=O)CN)[C@@H](C)O)[C@@H](C)O)C(=O)N[C@@H](Cc1c[nH]cn1)C(=O)N[C@@H](Cc1ccc(O)cc1)C(=O)O [p53 226-234]
Proteasomal Cleavage of C-terminus, HH (HeLa) [4]: + (Major cleavage sites are defined as more than >1% of total digested peptide within the first hour)
Proteasomal Cleavage of C-terminus, IP (RMA) [5]: + (Major cleavage sites are defined as more than >1% of total digested peptide within the first hour)

GFLHSGTAK [p53 112-120]
Proteasomal Cleavage of C-terminus, IP (JY) [3]: + (Major cleavage sites are defined as more than >1% of total digested peptide within the first hour)
HLA binding Stability (Table 5) [6]: − (The rest was designated as unstable peptide binding.)
Peptide Binding Stability [6]: − (The rest was designated as unstable peptide binding.)
HLA binding Stability (Table 5) ([8]; HLA type A11): − (The rest was designated as unstable peptide binding.)
Peptide Binding Stability [8]: − (The rest was designated as unstable peptide binding.)
HLA binding Affinity (Table 5) [7]: int
IC50 [7]: 5 to 15 µM
HLA binding Affinity (Table 5) ([9]; HLA type A11): int
IC50 ([9]; HLA-A*1101, IC50 category, read-out: Peptide Binding Affinity): 5 to 15 µM
Proteasomal Cleavage of C-terminus, IP (RMA) [5]: + (Major cleavage sites are defined as more than >1% of total digested peptide within the first hour)

CSCC[C@H](NC(=O)[C@H](CCCCN)NC(=O)[C@H](CC(N)=O)NC(=O)[C@H](CC(C)C)NC(=O)[C@H](C)N)C(=O)N[C@@H](Cc1ccccc1)C(=O)N[C@@H](CS)C(=O)N[C@@H](CCC(N)=O)C(=O)N[C@@H](CC(C)C)C(=O)N[C@@H](C)C(=O)N[C@@H](CCCCN)C(=O)O [p53 129-139]
Proteasomal Cleavage of C-terminus, IP (JY) [3]: + (Major cleavage sites are defined as more than >1% of total digested peptide within the first hour)
Peptide Binding Stability [6]: + (Stable peptides displayed IC50 at 20 °C that deviated <2 times of the IC50 at 4° C.)
Proteasomal Cleavage of C-terminus, HH (HeLa) [4]: + (Major cleavage sites are defined as more than >1% of total digested peptide within the first hour)
Peptide Binding Affinity [7]: high
Proteasomal Cleavage of C-terminus, IP (RMA) [5]: + (Major cleavage sites are defined as more than >1% of total digested peptide within the first hour)

CSCC[C@H](NC(=O)[C@@H](N)CCCCN)C(=O)N[C@@H](Cc1ccccc1)C(=O)N[C@@H](CS)C(=O)N[C@@H](CCC(N)=O)C(=O)N[C@@H](CC(C)C)C(=O)N[C@@H](C)C(=O)N[C@@H](CCCCN)C(=O)O [p53 132-139]
Proteasomal Cleavage of C-terminus, IP (JY) [3]: + (Major cleavage sites are defined as more than >1% of total digested peptide within the first hour)
Peptide Binding Stability [6]: + (Stable peptides displayed IC50 at 20 °C that deviated <2 times of the IC50 at 4° C.)
Proteasomal Cleavage of C-terminus, HH (HeLa) [4]: + (Major cleavage sites are defined as more than >1% of total digested peptide within the first hour)
Peptide Binding Stability [8]: + (Stable peptides displayed IC50 at 20 °C that deviated <2 times of the IC50 at 4° C.)
Peptide Binding Affinity [7]: high
Peptide Binding Affinity ([9]; HLA-A*1101, IC50 category): high
Proteasomal Cleavage of C-terminus, IP (RMA) [5]: + (Major cleavage sites are defined as more than >1% of total digested peptide within the first hour)
